Assay results published in ChEMBL document CHEMBL4007496, “Isolation and characterization of diterpene glycosides from Siegesbeckia pubescens” (Bioorg Med Chem Lett, 2017).

Assays:
RAW264.7 = experiment: Antiinflammatory activity in mouse RAW264.7 cells assessed as inhibition of LPS-induced nitric oxide production preincubated for 30 mins followed by LPS challenge measured after 24 hrs by Griess assay; type: functional, cell-based
MDA-MB-231 = experiment: Inhibition of EGF-induced invasion of human MDA-MB-231 cells by MTT assay; type: functional, cell-based

IC50 (RAW264.7)	IC50 (MDA-MB-231)	SMILES
> 100 µM	> 25 µM	CC1(C)[C@H]2CCC3=C(CC[C@](C)([C@@H](O)CO)C3)[C@]2(C)CC[C@H]1O[C@@H]1O[C@H](CO)[C@@H](O)[C@H](O)[C@H]1O
> 100 µM	> 25 µM	CC1(C)[C@H]2CCC3=C[C@@](C)(C=O)CC[C@H]3[C@]2(C)CC[C@H]1O[C@@H]1O[C@H](CO)[C@@H](O)[C@H](O)[C@H]1O
> 100 µM	26.8 µM	C=C1C[C@]23CC[C@@H]4[C@](C)(CO[C@@H]5O[C@H](CO)[C@@H](O)[C@H](O)[C@H]5O)CC(=O)C[C@@]4(C)[C@@H]2CC[C@@]1(O)C3
–	> 25 µM	CC1(C)[C@H](O)CC[C@@]2(C)[C@@H]3CC[C@](C)([C@@H](O)CO)C=C3CC[C@H]12 [DARUTIGENOL]

More lines, now with the values behind:

SMILES	IC50 (RAW264.7)	IC50 (MDA-MB-231)
CC1(C)[C@@H](O[C@@H]2O[C@H](CO)[C@@H](O)[C@H](O)[C@H]2O)CC[C@@]2(C)[C@@H]3CC[C@](C)([C@@H](O)CO)C=C3CC[C@H]12	> 100 µM	24.8 µM
CC1(C)[C@H]2CCC3=C[C@@](C)([C@H](O)CO)CC[C@H]3[C@]2(C)CC[C@H]1O[C@@H]1O[C@H](CO)[C@@H](O)[C@H](O)[C@H]1O	> 100 µM	0.27 µM
CC1(C)[C@H]2CCC3=C[C@@](C)([C@@H](O)CO)CC[C@H]3[C@]2(C)CC[C@H]1O[C@@H]1O[C@H](CO)[C@@H](O)[C@H](O)[C@H]1O	> 100 µM	> 25 µM
